One data set has as its target ADENOSINE A3 REC. (Homo sapiens, UniProt P0DMS8). In words: biochemical. To be noted: read-out: ADENOSINE A3 REC. percent activity or inhibition compared to the assay reference.
For a further data set, the target named is C[…]. CB1 (Homo sapiens, UniProt P21554). In words: biochemical. To be noted: read-out: C[…]. CB1 percent activity or inhibition compared to the assay reference.
The next data set deals with 5HT2B (Homo sapiens, UniProt P41595). In words: biochemical. To be noted: read-out: 5HT2B percent activity or inhibition compared to the assay reference.
The next data set addresses ZAP70 (Homo sapiens, UniProt P43403). The data set is described as follows: biochemical. The note with it: read-out: ZAP70 percent activity or inhibition compared to the assay reference.
A further data set addresses CYP3A4 (Homo sapiens, UniProt P08684). The data set is described as follows: Cytochrome P450 inhibition assay, CYP3A4. To be noted: liver microsomes.
For another data set, the target named is 5HT1A (Homo sapiens, UniProt P08908). The data set is described as follows: biochemical. To be noted: read-out: 5HT1A percent activity or inhibition compared to the assay reference.
Another data set addresses ESTROGEN REC. α (Homo sapiens, UniProt P03372). The data set is described as follows: biochemical. The note with it: read-out: ESTROGEN REC. α percent activity or inhibition compared to the assay reference.
A further data set has as its target ADENOSINE A1 REC. (Homo sapiens, UniProt P30542). In words: biochemical. The note with it: read-out: ADENOSINE A1 REC. percent activity or inhibition compared to the assay reference.
Another data set addresses α1A-ADRENOCEPTOR (Homo sapiens, UniProt P35348). The data set is described as follows: biochemical. To be noted: read-out: α1A-ADRENOCEPTOR percent activity or inhibition compared to the assay reference.
Another data set addresses ABL1 (Homo sapiens, UniProt P00519). The data set is described as follows: biochemical. The note with it: read-out: ABL1 percent activity or inhibition compared to the assay reference.
The target in another data set is PHOSPHODIESTERASE 4D2 (Homo sapiens, UniProt Q08499). The data set is described as follows: biochemical. To be noted: read-out: PHOSPHODIESTERASE 4D2 percent activity or inhibition compared to the assay reference.
The target of the next data set is μ OPIOID REC. (Homo sapiens, UniProt P35372). The data set is described as follows: biochemical. To be noted: read-out: μ OPIOID REC. percent activity or inhibition compared to the assay reference.
The next data set concerns the target GSK-3B (Homo sapiens, UniProt P49841). In words: biochemical. The note with it: read-out: GSK-3B percent activity or inhibition compared to the assay reference.
In data set [1] the target is T1, ANGIOTENSIN II REC. 1 (Homo sapiens, UniProt P30556). In words: biochemical. The note with it: read-out: ANGIOTENSIN II REC. 1 percent activity or inhibition compared to the assay reference.
The target of the next data set is GSK-3A (Homo sapiens, UniProt P49840). The data set is described as follows: biochemical. To be noted: read-out: GSK-3A percent activity or inhibition compared to the assay reference.
For another data set, the target named is CDK2 (Homo sapiens, UniProt P24941). In words: biochemical. To be noted: read-out: CDK2 percent activity or inhibition compared to the assay reference.
In the next data set the target is ANDROGEN REC. (Homo sapiens, UniProt P10275). The data set is described as follows: biochemical. To be noted: read-out: ANDROGEN REC. percent activity or inhibition compared to the assay reference.
The target in a further data set is A[…]. ENZ. (Homo sapiens, UniProt P12821). The data set is described as follows: biochemical. To be noted: read-out: A[…]. ENZ. percent activity or inhibition compared to the assay reference.
A further data set addresses κ OPIOID REC. (Homo sapiens, UniProt P41145). The data set is described as follows: biochemical. The note with it: read-out: κ OPIOID REC. percent activity or inhibition compared to the assay reference.
For a further data set, the target named is CYCLO OXYGENASE 2 (Homo sapiens, UniProt P35354). The data set is described as follows: biochemical. The note with it: read-out: CYCLO OXYGENASE 2 percent activity or inhibition compared to the assay reference.
In a further data set the target is CYP2D6 (Homo sapiens, UniProt P10635). The data set is described as follows: Cytochrome P450 inhibition assay, CYP2D6. To be noted: liver microsomes.
The target in another data set is 5HT2A (Homo sapiens, UniProt P28223). In words: biochemical. The note with it: read-out: 5HT2A percent activity or inhibition compared to the assay reference.
The target in the next data set is DOPAMINE D1 REC. (Homo sapiens, UniProt P21728). In words: biochemical. To be noted: read-out: DOPAMINE D1 REC. percent activity or inhibition compared to the assay reference.
A further data set has as its target HIV-1 PROTEASE (Human immunodeficiency virus type 1 group M subtype B, UniProt P04585). The data set is described as follows: biochemical. The note with it: read-out: HIV-1 PROTEASE percent activity or inhibition compared to the assay reference.
A further data set can be described thus: Hepatocyte clearance. To be noted: for hepatocyte CLint at 1 µM: human, hepatocytes.
The next data set has as its target XANTHINE OXIDASE (Bos taurus, UniProt P80457). In words: biochemical. The note with it: read-out: XANTHINE OXIDASE percent activity or inhibition compared to the assay reference.
A further data set in a line: Solubility in FESSIF. In kind it is physicochemical.
The test system of a further data set is MUSCULAR NICOTINIC REC. To be noted: 10 uM; n=2.
The target in another data set is MONOAMINE OXIDASE-A (Homo sapiens, UniProt P21397). To be noted: 10 uM; n=2.
Data set [2] addresses T1, ANGIOTENSIN II REC. 1. The note with it: 10 uM; n=2.

The structures appear in SMILES notation. In brackets after ≈: the same amount, converted by molar mass.

ABL1, sequence (P00519 whole entry): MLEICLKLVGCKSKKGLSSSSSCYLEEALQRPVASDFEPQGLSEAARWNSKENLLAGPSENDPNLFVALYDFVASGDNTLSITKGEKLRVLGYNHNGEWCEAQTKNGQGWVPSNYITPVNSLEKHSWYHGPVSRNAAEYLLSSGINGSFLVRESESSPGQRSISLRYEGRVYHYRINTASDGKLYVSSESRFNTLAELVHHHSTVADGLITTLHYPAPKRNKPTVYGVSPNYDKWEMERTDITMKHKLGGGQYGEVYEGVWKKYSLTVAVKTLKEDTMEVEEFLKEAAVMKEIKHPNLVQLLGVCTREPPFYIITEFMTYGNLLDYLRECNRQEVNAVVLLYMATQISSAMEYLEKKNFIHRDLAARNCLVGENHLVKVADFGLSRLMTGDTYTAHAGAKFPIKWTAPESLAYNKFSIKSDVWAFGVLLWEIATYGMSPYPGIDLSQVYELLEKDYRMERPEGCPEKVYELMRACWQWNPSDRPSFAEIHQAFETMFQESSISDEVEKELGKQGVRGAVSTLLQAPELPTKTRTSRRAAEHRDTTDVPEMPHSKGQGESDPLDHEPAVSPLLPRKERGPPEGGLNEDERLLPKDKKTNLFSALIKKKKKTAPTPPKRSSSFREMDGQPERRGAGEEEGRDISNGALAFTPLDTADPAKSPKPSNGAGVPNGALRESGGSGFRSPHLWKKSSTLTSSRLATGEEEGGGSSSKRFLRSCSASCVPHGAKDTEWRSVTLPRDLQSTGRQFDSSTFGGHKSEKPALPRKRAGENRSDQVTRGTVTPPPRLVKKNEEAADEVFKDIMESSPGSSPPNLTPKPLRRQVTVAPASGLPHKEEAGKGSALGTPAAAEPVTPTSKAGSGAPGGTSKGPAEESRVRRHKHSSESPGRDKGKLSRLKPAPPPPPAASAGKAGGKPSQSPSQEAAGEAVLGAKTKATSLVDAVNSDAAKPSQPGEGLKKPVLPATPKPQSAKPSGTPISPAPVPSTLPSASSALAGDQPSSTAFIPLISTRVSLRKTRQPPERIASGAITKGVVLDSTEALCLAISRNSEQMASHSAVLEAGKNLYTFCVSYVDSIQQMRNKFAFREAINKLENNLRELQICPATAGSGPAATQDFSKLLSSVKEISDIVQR
ADENOSINE A3 REC., sequence (P0DMS8 whole entry): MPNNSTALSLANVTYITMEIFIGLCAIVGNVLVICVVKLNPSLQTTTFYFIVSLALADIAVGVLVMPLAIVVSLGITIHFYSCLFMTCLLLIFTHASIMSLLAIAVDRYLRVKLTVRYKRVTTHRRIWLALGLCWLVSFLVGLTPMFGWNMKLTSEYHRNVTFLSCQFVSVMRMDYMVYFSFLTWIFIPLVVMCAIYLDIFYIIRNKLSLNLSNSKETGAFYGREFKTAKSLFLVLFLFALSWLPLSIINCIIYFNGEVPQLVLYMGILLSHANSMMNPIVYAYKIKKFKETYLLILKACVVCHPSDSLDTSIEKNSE
UniProt P35348, sequence (P35348 whole entry): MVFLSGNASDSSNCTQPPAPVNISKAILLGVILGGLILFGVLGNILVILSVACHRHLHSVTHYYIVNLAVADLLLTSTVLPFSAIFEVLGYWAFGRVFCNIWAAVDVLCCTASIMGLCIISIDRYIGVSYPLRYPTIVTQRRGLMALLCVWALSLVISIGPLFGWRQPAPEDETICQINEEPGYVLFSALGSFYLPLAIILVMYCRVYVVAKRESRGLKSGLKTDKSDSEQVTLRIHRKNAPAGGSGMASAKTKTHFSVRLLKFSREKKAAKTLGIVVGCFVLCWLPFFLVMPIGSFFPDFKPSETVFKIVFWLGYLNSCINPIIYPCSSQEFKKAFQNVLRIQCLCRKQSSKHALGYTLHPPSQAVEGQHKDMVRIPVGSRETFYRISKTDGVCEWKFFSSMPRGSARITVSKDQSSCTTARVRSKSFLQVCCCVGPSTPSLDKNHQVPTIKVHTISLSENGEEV
ADENOSINE A1 REC., sequence (P30542 whole entry): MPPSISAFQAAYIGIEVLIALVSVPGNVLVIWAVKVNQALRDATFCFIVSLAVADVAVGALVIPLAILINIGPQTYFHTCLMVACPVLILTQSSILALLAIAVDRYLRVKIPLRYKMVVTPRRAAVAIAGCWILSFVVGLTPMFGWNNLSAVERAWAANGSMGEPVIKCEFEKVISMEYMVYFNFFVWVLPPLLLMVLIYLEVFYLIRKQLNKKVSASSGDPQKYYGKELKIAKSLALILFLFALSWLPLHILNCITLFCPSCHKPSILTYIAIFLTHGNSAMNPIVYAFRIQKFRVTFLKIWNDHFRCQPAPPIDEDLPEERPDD
κ OPIOID REC., sequence (P41145 whole entry): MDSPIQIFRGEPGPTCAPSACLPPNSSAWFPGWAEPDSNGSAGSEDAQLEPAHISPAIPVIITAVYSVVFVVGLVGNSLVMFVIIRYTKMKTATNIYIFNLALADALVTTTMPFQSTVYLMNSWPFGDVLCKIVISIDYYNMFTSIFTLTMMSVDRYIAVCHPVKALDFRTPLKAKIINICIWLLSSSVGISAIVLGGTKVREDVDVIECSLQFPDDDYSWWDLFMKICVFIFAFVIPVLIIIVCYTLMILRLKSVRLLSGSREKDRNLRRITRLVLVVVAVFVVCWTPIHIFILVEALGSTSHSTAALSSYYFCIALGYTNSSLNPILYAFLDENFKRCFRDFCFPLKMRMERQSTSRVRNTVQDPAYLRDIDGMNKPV
GSK-3A, sequence (P49840 whole entry): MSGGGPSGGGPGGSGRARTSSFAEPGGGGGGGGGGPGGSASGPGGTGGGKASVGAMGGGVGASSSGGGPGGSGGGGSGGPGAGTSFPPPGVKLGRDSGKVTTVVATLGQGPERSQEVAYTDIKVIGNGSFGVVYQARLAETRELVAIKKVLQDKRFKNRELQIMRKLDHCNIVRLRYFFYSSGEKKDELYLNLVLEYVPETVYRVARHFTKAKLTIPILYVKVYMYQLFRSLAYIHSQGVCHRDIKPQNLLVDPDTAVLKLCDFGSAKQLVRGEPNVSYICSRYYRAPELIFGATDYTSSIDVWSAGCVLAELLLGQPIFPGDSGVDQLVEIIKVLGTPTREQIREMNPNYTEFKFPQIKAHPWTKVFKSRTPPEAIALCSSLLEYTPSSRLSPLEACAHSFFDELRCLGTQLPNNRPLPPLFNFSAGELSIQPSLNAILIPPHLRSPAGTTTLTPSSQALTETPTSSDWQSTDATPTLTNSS
5HT2B, sequence (P41595 whole entry): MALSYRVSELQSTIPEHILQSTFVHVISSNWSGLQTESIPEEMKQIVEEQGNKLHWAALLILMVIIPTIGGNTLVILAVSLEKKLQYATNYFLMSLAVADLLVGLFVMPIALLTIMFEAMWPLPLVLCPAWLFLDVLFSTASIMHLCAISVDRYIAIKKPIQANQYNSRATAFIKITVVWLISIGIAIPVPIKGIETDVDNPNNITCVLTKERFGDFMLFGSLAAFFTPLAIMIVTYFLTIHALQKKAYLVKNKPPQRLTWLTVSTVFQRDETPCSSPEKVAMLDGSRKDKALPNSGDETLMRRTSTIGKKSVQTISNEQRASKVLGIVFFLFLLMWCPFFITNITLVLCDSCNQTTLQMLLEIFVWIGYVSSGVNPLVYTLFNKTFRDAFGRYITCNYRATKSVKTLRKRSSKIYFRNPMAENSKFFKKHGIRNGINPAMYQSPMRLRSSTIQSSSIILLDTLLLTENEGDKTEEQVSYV
ZAP70, sequence (P43403 whole entry): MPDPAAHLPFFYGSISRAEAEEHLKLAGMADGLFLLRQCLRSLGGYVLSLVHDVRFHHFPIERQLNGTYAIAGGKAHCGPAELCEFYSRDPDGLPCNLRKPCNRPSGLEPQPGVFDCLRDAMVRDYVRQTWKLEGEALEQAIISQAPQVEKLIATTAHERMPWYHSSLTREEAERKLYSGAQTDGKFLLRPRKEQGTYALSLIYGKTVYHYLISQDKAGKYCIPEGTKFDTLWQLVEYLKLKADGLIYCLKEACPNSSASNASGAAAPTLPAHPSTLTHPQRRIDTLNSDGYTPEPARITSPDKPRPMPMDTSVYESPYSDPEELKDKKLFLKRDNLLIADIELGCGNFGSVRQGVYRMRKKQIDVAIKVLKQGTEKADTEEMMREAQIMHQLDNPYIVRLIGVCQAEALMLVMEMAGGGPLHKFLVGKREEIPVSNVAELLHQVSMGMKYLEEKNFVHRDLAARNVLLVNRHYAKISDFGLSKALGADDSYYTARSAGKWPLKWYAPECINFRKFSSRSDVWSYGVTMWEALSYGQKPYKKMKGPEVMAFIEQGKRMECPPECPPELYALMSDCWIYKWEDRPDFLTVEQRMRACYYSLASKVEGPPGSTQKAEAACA
ESTROGEN REC. α, sequence (P03372 whole entry): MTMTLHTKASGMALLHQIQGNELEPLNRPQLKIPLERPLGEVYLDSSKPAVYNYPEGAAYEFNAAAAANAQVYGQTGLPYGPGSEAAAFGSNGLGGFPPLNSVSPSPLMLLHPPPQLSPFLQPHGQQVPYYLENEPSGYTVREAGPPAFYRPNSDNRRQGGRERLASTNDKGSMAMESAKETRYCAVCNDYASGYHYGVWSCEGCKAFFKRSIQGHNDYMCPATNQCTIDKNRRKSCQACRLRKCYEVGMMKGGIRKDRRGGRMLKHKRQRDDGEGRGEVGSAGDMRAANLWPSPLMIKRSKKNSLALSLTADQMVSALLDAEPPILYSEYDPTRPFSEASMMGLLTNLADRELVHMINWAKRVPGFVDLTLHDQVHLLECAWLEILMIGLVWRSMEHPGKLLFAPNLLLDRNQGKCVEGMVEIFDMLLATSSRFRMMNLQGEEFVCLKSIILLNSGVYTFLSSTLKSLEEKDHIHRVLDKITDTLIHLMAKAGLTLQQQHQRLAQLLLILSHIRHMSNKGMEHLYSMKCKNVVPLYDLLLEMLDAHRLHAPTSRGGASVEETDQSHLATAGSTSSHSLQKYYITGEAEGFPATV

For `O=C(c1ccc2nc(-c3cccnc3)oc2c1)N1CCN(c2nc3ccccc3c(=O)[nH]2)CC1` [Compound 17], the inhibition at 10 µM at ADENOSINE A3 REC. was 13%; at C[…]. CB1, 2%; at 5HT2B it was 28%; at ZAP70, -2%; at 5HT1A it was 1%; at ESTROGEN REC. α it was 0%. Moreover, the inhibition at 10 µM on ADENOSINE A1 REC. is 70%; on α1A-ADRENOCEPTOR, 13%; on ABL1 it was 2%; at PHOSPHODIESTERASE 4D2 it was 21%; on μ OPIOID REC., 48%; on GSK-3B it was -21%. Further, the inhibition at 10 µM is -3% on ANGIOTENSIN II REC. 1 [1]; 8% at GSK-3A; 3% at CDK2; 6% at ANDROGEN REC.; 16% at A[…]. ENZ.; 15% at κ OPIOID REC.. Further, the inhibition at 10 µM was 20% at CYCLO OXYGENASE 2; 7% at 5HT2A; 3% at DOPAMINE D1 REC.; 11% on HIV-1 PROTEASE; 2% on XANTHINE OXIDASE. The “CYP3A4 Inhibition” value at CYP3A4 is 16%. Further, the “CYP2D6 Inhibition” value at CYP2D6 is -24%. The compound also displayed an intrinsic metabolic clearance (hepatocyte CLint) at 1 µM in the data set “Hepatocyte clearance” of 7.3 µL/min/1e6 cells.

`O=C(c1ccc2nc(-c3cnccc3C3CCCC3)oc2c1)N1CCN(c2nc3nc(Cl)ccc3o2)CC1` [Compound 23]: the inhibition at 10 µM on ADENOSINE A3 REC. was 21%; at C[…]. CB1 it was 2%; on 5HT2B, 3%; at ZAP70 it was -27%; at 5HT1A, 11%; on ESTROGEN REC. α, 5%. Besides, the inhibition at 10 µM was 24% at ADENOSINE A1 REC.; 4% on α1A-ADRENOCEPTOR; -8% at ABL1; 20% at PHOSPHODIESTERASE 4D2; 21% at μ OPIOID REC.; -20% on GSK-3B. Moreover, the inhibition at 10 µM on ANGIOTENSIN II REC. 1 [1] was 11%; at GSK-3A it was 1%; on CDK2 it was 8%; at ANDROGEN REC., -10%; at A[…]. ENZ., -17%; at κ OPIOID REC., 18%. In addition, the inhibition at 10 µM was 4% at CYCLO OXYGENASE 2; 2% at 5HT2A; -1% on DOPAMINE D1 REC.; 31% on HIV-1 PROTEASE; 6% on XANTHINE OXIDASE. Also, on CYP3A4, the “CYP3A4 Inhibition” value was above 90%. The compound also registered a solubility in the data set “Solubility in FESSIF” of 1.9 µg/mL (≈ 3.59 µM). Moreover, in the data set with MUSCULAR NICOTINIC REC., the “MUSCULAR NICOTINIC REC. percent activity or inhibition compared to the assay reference” value is reported as 0%. Also, the “CYP2D6 Inhibition” value at CYP2D6 was 38%. In the data set “Hepatocyte clearance”, this compound came in with an intrinsic metabolic clearance (hepatocyte CLint) at 1 µM of 179 µL/min/1e6 cells.

Regarding `O=C(c1ccc2nc(-c3cnccc3C3(C4CCC4)CC3)oc2c1)N1CCN(c2nc3nc(Cl)ccc3o2)CC1` [Compound 27], the “CYP3A4 Inhibition” value on CYP3A4 is above 90%. For the same compound, at MONOAMINE OXIDASE-A, the “MONOAMINE OXIDASE-A percent activity or inhibition compared to the assay reference” value is -2%. For the same compound, the “MUSCULAR NICOTINIC REC. percent activity or inhibition compared to the assay reference” value in the data set with MUSCULAR NICOTINIC REC. worked out at 2%. In addition, the “CYP2D6 Inhibition” value at CYP2D6 is on record as 79%. Further, the “ANGIOTENSIN II REC. 1 percent activity or inhibition compared to the assay reference” value on ANGIOTENSIN II REC. 1 [2] is recorded as -1%. In the data set “Hepatocyte clearance” (cryopreserved hepatocytes of human origin, 1 µM compound), the Hepatocyte clearance is recorded as 101.0 µL/min/10^6 cells.

Turning to `O=C(c1ccc2nc(-c3cnccc3C3CCCC3)oc2c1)N1CC2(CC(n3cnc(C4CC4)n3)C2)C1` [Compound 29], the inhibition at 10 µM is 28% on ADENOSINE A3 REC.; 9% on C[…]. CB1; 55% at 5HT2B; 5% on ZAP70; 19% on 5HT1A; -3% at ESTROGEN REC. α. For the same compound, the inhibition at 10 µM on ADENOSINE A1 REC. was 9%; at α1A-ADRENOCEPTOR, 50%; at ABL1, -5%; at PHOSPHODIESTERASE 4D2 it was 65%; on μ OPIOID REC., 30%; at GSK-3B it was -19%. Moreover, the inhibition at 10 µM at ANGIOTENSIN II REC. 1 [1] was 15%; on GSK-3A, 16%; on CDK2 it was -6%; on ANDROGEN REC., 7%; at A[…]. ENZ. it was -13%; at κ OPIOID REC. it was 32%. For the same compound, the inhibition at 10 µM on CYCLO OXYGENASE 2 is 23%; at 5HT2A, 10%; on DOPAMINE D1 REC., 7%; on HIV-1 PROTEASE it was 31%; at XANTHINE OXIDASE, 3%. Further, the “CYP3A4 Inhibition” value on CYP3A4 came to 84%. In the data set “Solubility in FESSIF”, this compound yielded a solubility of 25 µg/mL (≈ 50.5 µM). For the same compound, the “MUSCULAR NICOTINIC REC. percent activity or inhibition compared to the assay reference” value in the data set on MUSCULAR NICOTINIC REC. is 24%. Also, on CYP2D6, the “CYP2D6 Inhibition” value turned out to be 34%. Further, the hepatocyte CLint at 1 µM in the data set “Hepatocyte clearance” worked out at 181 µL/min/1e6 cells.

For the origin of these results see publication PMC12749626, “Expediting hit-to-lead progression in drug discovery through reaction prediction and multi-dimensional optimization” (Nature Communications, 2025).
